Measured values published in US8445006B2, “Biomolecular coating for implants” (Georgia Tech Research Corporation, priority 2006, dated 2013).

Tests used:
[1] = test system: bone marrow stromal cells; experiment: Centrifugation cell adhesion assay on poly(OEGMA) brush titanium surfaces; assay type: cell-based, rat; settings: poly(OEGMA) brushes, 0.9 pmol/cm^2 ligand; for cell adhesion, no antibody: serum exposure
Procedure: Cell adhesion to functionalized and untreated titanium surfaces was measured using a centrifugation assay that applies controlled detachment forces. […] Control titanium slides were coated with 10% FBS (to model serum protein adsorption) or blocking buffer (5% non-fat dry milk in PBS to produce a non adhesive support). Stromal cells were loaded with the fluorescent dye calcein-AM (2 μg/ml, Molecular Probes), detached using trypsin+EDTA, and resuspended serum-free in PBS with 2 mM dextrose. Cells were seeded onto the substrates (10,000 cells/well) for 1 h at 37° C. […] After filling the wells with PBS/dextrose and sealing with transparent adhesive tape, substrates were inverted and spun at a fixed speed in a centrifuge (Beckman Allegra 6, GH 3.8 rotor) to apply a centrifugal force corresponding to 12 g. After centrifugation, media was exchanged and fluorescence intensity was read to measure remaining adherent cells. For each well, adherent cell fraction was calculated as the ratio of post-spin to pre-spin fluorescence readings.
In vitro evaluation of these engineered titanium surfaces was performed using primary rat bone marrow stromal cells since this heterogeneous population contains osteoprogenitors, and human bone marrow stromal cells are currently used in clinical applications. Cell adhesion was examined using a centrifugation assay that applies a controlled detachment force. […] As a complementary test of integrin specificity, integrin binding was quantified using a biochemical cross-linking/extraction/reversal technique.

[2] = test system: bone marrow stromal cells; experiment: Centrifugation cell adhesion assay on titanium surfaces; assay type: cell-based, rat; settings: for stromal cell adhesion (adherent cell fraction): 1 h serum-free, centrifugation 12 g, no antibody, adsorbed on Ti at 20 μg/ml
Procedure: Primary bone marrow stromal cells were harvested from the femora of young adult male Wistar rats in accordance with an IACUC-approved protocol. After excision, hindleg femora and tibiae were cleared of soft tissue and rinsed in growth medium (α-minimal essential medium supplemented with 10% fetal bovine serum, 1% penicillin-streptomycin, and 0.3 μg/ml amphotericin B). The ends of the long bones were then removed and the marrow space was flushed with culture medium (3-5 ml), using a syringe with an 18-gauge needle. Marrow isolates were pooled, centrifuged, resuspended in growth medium, and seeded for adhesion-dependent selection on tissue culture polystyrene dishes. Non-adherent hematopoietic cells were removed during subsequent medium exchanges, which occurred every other day. Cells were subcultured every two days according to standard techniques. For in vitro osteogenic assays, cells were seeded at 10,000 cells/cm^2 in growth medium. After 24 h, cultures were maintained in osteogenic medium consisting of growth medium supplemented with 50 μg/ml L-ascorbic acid and 3 mM sodium β-glycerophosphate.
The peptide […](GPP)5GFOGER(GPP)5GPC (SEQ ID NO:1) [O=hydroxyproline] was prepared by the Emory University Microchemical Facility using solid phase t-Boc synthesis. Peptide was supplied in the purified form as a trifluoroacetic acid (TFA) salt and reconstituted at a stock concentration of 10 mg/ml in 0.1% TFA. For the in vitro assays, glass chamber slides (16-well Lab-Tek Chamber Slides, Nalge Nunc) or tissue culture-treated polystyrene dishes were coated with 300 Å of pure titanium using an electron beam evaporator at a chamber base pressure between 1-2×10^−6 torr with a deposition rate of 1.5 Å/second. The GFOGER peptide (SEQ ID NO:1) was diluted to 20 μg/ml in Dulbecco's phosphate-buffered saline (PBS) and incubated on the titanium surfaces for 1 h at 22° C.
Cell adhesion to functionalized and untreated titanium surfaces was measured using a centrifugation assay that applies controlled detachment forces. Titanium-coated glass chamber slide wells were reassembled using a silicone-based adhesive and coated with 20 μg/ml GFOGER peptide (SEQ ID NO:1) or 20 μg/ml GRGDSPC (SEQ ID NO:3) peptide (BACHEM). Control titanium slides were coated with 10% FBS (to model serum protein adsorption) or blocking buffer (5% non-fat dry milk in PBS to produce a non adhesive support). […] Initial fluorescence intensity was measured to quantify the number of adherent cells prior to application of centrifugal force. […] After centrifugation, media was exchanged and fluorescence intensity was read to measure remaining adherent cells. For each well, adherent cell fraction was calculated as the ratio of post-spin to pre-spin fluorescence readings. […]

| Substance | cell adhesion with anti-αv antibody [1] | cell adhesion with blocking anti-α5 antibody [1] | cell adhesion, no antibody [1] | cell adhesion with blocking anti-α2 antibody ([2]; 20 μg/ml anti-rat α2 antibody) | cell adhesion with function-perturbing anti-αv antibody ([2]; 20 μg/ml anti-rat αv antibody) | stromal cell adhesion (adherent cell fraction) [2] |
| --- | --- | --- | --- | --- | --- | --- |
| FNIII7-10: monobiotinylated recombinant fibronectin fragment spanning the 7-10th type III repeats of fibronectin; α5β1 integrin ligand | had no effect | completely eliminated cell adhesion | high levels of cell adhesion | – | – | – |
| GGYGGGPC(GPP)5GFOGER(GPP)5GPC [GFOGER peptide] | – | – | – | completely eliminated cell adhesion | had no effect on adhesion | greater stromal cell adhesion |
| GRGDSPC [RGD peptide, linear RGD oligopeptide purchased from BACHEM; primarily supports αvβ3-mediated adhesion, reference compound] | eliminated adhesion | – | high levels of cell adhesion | – | – | equivalent to background levels |
